One series concerns the target T1, hPFK-M (Homo sapiens, UniProt P08237).
T1 construct: made in house; host or cells: PFK-deficient Saccharomyces cerevisiae
T1 sequence (P08237 1-780): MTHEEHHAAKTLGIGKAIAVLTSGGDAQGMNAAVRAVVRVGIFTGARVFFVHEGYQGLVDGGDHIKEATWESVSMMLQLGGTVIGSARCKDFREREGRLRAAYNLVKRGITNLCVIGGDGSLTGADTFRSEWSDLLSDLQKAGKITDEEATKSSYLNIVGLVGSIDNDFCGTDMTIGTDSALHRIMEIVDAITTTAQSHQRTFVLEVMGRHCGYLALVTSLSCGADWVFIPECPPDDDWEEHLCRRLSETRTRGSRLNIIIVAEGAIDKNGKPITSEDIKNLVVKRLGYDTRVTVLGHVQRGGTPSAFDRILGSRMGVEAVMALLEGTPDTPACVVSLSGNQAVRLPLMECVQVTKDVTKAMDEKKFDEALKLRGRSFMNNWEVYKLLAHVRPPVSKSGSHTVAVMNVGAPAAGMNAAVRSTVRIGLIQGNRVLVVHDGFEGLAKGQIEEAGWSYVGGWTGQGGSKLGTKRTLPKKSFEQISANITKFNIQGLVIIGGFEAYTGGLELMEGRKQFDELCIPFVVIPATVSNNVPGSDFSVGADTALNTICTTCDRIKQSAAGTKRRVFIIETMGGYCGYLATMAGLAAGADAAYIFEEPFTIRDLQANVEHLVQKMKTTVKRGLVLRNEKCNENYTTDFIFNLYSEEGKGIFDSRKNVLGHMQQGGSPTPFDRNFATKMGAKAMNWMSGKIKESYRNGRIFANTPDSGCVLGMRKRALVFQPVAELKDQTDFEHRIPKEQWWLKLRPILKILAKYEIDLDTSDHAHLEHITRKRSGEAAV
The experiment in a line: ALDO/G3PDH/TIM linked enzyme assay, human PFK-M. Format: biochemical. The following applies: aldolase/TIM linked assay, 25 °C; highest concentration 100 µM. As for the experimental part: Enzyme activity was measured using an aldolase/TIM linked assay at 25 °C. […] Experiments were carried out in duplicate. Data are presented as mean values ± standard deviation. […] Source data are provided as a Source Data File. b Kill time of CTCB-405 compared with existing HAT drugs in the clinic. […] Over 99% of trypanosomes were killed in under 30 min compared with much slower killing rates for the other drugs. The points on the graph for CTCB-405 were determined from two independent biological replicate experiments with each time point measured twice (using duplicate technical replicates). The ESD for each point on the graph is between 0.7 and 1.4%. For drugs in clinical use each point on the graph is the average of two technical replicates from one experiment (with a maximum difference of 7.8% for any of the points). Source data are provided as a Source Data File.
In the PFK/PYK/LDH assay, the linked PYK activity acts to convert the ADP produced by PFK back to ATP. As ATP is an inhibitor of human PFK (but not TbPFK) at concentrations higher than ~0.5 mM the regeneration of ATP is likely to affect the assay readout. […] TIM interconverts GA3P and DHAP, and DHAP is reduced to glycerol 3-phosphate by G3PD, alongside the oxidation of NADH to NAD^+, which was measured by observing the change in UV absorbance at 340 nm for 10 minutes at 25° C using a Spectramax© M5 Multimode plate reader. […]

Series [1] in a line: Experimentally determined pKa and logP (Pharmorphix). It counts as physicochemical. As for the experimental part:
pKa and […] values for selected CTCB compounds were determined experimentally by the company Pharmorphix (www.matthey.com) and calculated pKas were determined using ChemAxon.software (https://chemaxon.com).

With `CN(C)CCn1ccc2c(ccn2Cc2ccc(Cl)c(Cl)c2)c1=O` [CTCB-405, 1-[(3,4-Dichlorophenyl)methyl]-5-[2-(dimethylamino)ethyl] pyrrolo[3,2-c]pyridin-4-one], the “inhibition of hPFK-M” value against hPFK-M is reported as “no significant inhibition”. In series [1] (read-out: Measured logP), the logP – broadly, a log measure of how a compound divides between an organic and an aqueous phase – worked out at 3.29. For the same molecule, the pKa – broadly, the negative logarithm of the acid dissociation constant – in series [1] (read-out: Measured pKa) stood at 8.09.

The record behind these values is PMC7887271, “Fast acting allosteric phosphofructokinase inhibitors block trypanosome glycolysis and cure acute African trypanosomiasis in mice” (Nature Communications, 2021).
